Our source for the Kd values is paper PMC4676015, “Variant fatty acid-like molecules Conjugation, novel approaches for extending the stability of therapeutic peptides” (Scientific Reports, 2015).

One may read the Kd as the free concentration of one partner at which half of the binding sites on the other are occupied at equilibrium, for simple one-to-one binding. Read a low Kd as tighter binding.

The target of the experiment is T1, GLP-1 receptor (GLP-1R) (Rattus norvegicus, UniProt P32301).
T1 construct: endogenous in cells; host or cells: rat INS-1 cells
T1 sequence (P32301 22-463): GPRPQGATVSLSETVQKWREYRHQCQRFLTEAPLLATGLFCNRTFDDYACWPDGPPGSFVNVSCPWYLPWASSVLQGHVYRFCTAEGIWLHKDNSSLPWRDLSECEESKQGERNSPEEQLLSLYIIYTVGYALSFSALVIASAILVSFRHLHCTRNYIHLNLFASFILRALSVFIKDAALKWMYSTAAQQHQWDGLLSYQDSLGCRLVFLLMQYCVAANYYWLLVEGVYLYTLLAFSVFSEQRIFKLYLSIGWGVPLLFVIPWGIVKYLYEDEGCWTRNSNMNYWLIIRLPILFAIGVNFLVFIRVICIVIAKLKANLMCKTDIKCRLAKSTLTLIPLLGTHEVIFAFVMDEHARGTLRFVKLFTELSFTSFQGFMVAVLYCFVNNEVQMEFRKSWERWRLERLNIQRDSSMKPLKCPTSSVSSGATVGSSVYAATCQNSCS
Briefly: GLP-1 receptor binding assay (cellular ELISA). The method, then: Cells were rinsed with PBS and fixed with 4% paraformaldehyde (Thermo Scientific) for 10 min at room temperature and quenched for 5 min with 2% glycine in PBS, pH 7.5. […] After a 2 h incubation at 37 °C in a final volume of 100 μl, the excess peptides were washed, and the cells were blocked with 5% BSA (BD Biosciences). […] Colorimetric changes were analyzed by reading the absorbance at 450 nm in a SpectraMax M5 (Molecular Device) microplate reader. The peptide concentration was plotted against UV absorbance, and the Kd was calculated using Origin 7.0 software.
Background: In an ELISA, binding on a coated surface is turned into a signal by an enzyme label.
As to `CCCCCCCCCCCCCCCCNC(=O)CC[C@H](NC(=O)[C@H](C)NC(=O)[C@@H](N)Cc1c[nH]cn1)C(=O)NCC(=O)N[C@H](C(=O)N[C@@H](Cc1ccccc1)C(=O)N[C@H](C(=O)N[C@@H](CO)C(=O)N[C@@H](CC(=O)O)C(=O)N[C@H](C(=O)N[C@@H](CO)C(=O)N[C@@H](CO)C(=O)N[C@@H](Cc1ccc(O)cc1)C(=O)N[C@@H](CC(C)C)C(=O)N[C@@H](CCC(=O)O)C(=O)NCC(=O)N[C@@H](CCC(N)=O)C(=O)N[C@@H](C)C(=O)N[C@@H](C)C(=O)N[C@@H](CCCCN)C(=O)N[C@@H](CCC(=O)O)C(=O)N[C@@H](Cc1ccccc1)C(=O)N[C@H](C(=O)N[C@@H](C)C(=O)N[C@@H](Cc1c[nH]c2ccccc12)C(=O)N[C@@H](CC(C)C)C(=O)N[C@H](C(=O)N[C@@H](CCCCN)C(=O)NCC(=O)N[C@@H](CCCNC(=N)N)C(=O)NCC(=O)O)C(C)C)[C@@H](C)CC)C(C)C)[C@@H](C)O)[C@@H](C)O` [compound 9], binding was put at a Kd of 99.74 ± 0.92 nM.
The same measure for `CCCCCCCCNC(=O)C[C@H](NC(=O)[C@H](CO)NC(=O)[C@@H](NC(=O)[C@H](Cc1ccccc1)NC(=O)[C@@H](NC(=O)CNC(=O)[C@H](CCC(=O)O)NC(=O)[C@H](C)NC(=O)[C@@H](N)Cc1c[nH]cn1)[C@@H](C)O)[C@@H](C)O)C(=O)N[C@H](C(=O)N[C@@H](CO)C(=O)N[C@@H](CO)C(=O)N[C@@H](Cc1ccc(O)cc1)C(=O)N[C@@H](CC(C)C)C(=O)N[C@@H](CCC(=O)O)C(=O)NCC(=O)N[C@@H](CCC(N)=O)C(=O)N[C@@H](C)C(=O)N[C@@H](C)C(=O)N[C@@H](CCCCN)C(=O)N[C@@H](CCC(=O)O)C(=O)N[C@@H](Cc1ccccc1)C(=O)N[C@H](C(=O)N[C@@H](C)C(=O)N[C@@H](Cc1c[nH]c2ccccc12)C(=O)N[C@@H](CC(C)C)C(=O)N[C@H](C(=O)N[C@@H](CCCCN)C(=O)NCC(=O)N[C@@H](CCCNC(=N)N)C(=O)NCC(=O)O)C(C)C)[C@@H](C)CC)C(C)C` [compound 10]: 88.3 ± 3.27 nM.
`CCCCCCCCCCCCNC(=O)C[C@H](NC(=O)[C@H](CO)NC(=O)[C@@H](NC(=O)[C@H](Cc1ccccc1)NC(=O)[C@@H](NC(=O)CNC(=O)[C@H](CCC(=O)O)NC(=O)[C@H](C)NC(=O)[C@@H](N)Cc1c[nH]cn1)[C@@H](C)O)[C@@H](C)O)C(=O)N[C@H](C(=O)N[C@@H](CO)C(=O)N[C@@H](CO)C(=O)N[C@@H](Cc1ccc(O)cc1)C(=O)N[C@@H](CC(C)C)C(=O)N[C@@H](CCC(=O)O)C(=O)NCC(=O)N[C@@H](CCC(N)=O)C(=O)N[C@@H](C)C(=O)N[C@@H](C)C(=O)N[C@@H](CCCCN)C(=O)N[C@@H](CCC(=O)O)C(=O)N[C@@H](Cc1ccccc1)C(=O)N[C@H](C(=O)N[C@@H](C)C(=O)N[C@@H](Cc1c[nH]c2ccccc12)C(=O)N[C@@H](CC(C)C)C(=O)N[C@H](C(=O)N[C@@H](CCCCN)C(=O)NCC(=O)N[C@@H](CCCNC(=N)N)C(=O)NCC(=O)O)C(C)C)[C@@H](C)CC)C(C)C` [compound 11] came in with a Kd of 97.4 ± 2.11 nM.
To `CCCCCCCCCCCCCCCCNC(=O)C[C@H](NC(=O)[C@H](CO)NC(=O)[C@@H](NC(=O)[C@H](Cc1ccccc1)NC(=O)[C@@H](NC(=O)CNC(=O)[C@H](CCC(=O)O)NC(=O)[C@H](C)NC(=O)[C@@H](N)Cc1c[nH]cn1)[C@@H](C)O)[C@@H](C)O)C(=O)N[C@H](C(=O)N[C@@H](CO)C(=O)N[C@@H](CO)C(=O)N[C@@H](Cc1ccc(O)cc1)C(=O)N[C@@H](CC(C)C)C(=O)N[C@@H](CCC(=O)O)C(=O)NCC(=O)N[C@@H](CCC(N)=O)C(=O)N[C@@H](C)C(=O)N[C@@H](C)C(=O)N[C@@H](CCCCN)C(=O)N[C@@H](CCC(=O)O)C(=O)N[C@@H](Cc1ccccc1)C(=O)N[C@H](C(=O)N[C@@H](C)C(=O)N[C@@H](Cc1c[nH]c2ccccc12)C(=O)N[C@@H](CC(C)C)C(=O)N[C@H](C(=O)N[C@@H](CCCCN)C(=O)NCC(=O)N[C@@H](CCCNC(=N)N)C(=O)NCC(=O)O)C(C)C)[C@@H](C)CC)C(C)C` [compound 12] belongs 84.6 ± 4.36 nM; to `CCCCCCCCNC(=O)CC[C@H](NC(=O)[C@H](CC(C)C)NC(=O)[C@H](Cc1ccc(O)cc1)NC(=O)[C@H](CO)NC(=O)[C@H](CO)NC(=O)[C@@H](NC(=O)[C@H](CC(=O)O)NC(=O)[C@H](CO)NC(=O)[C@@H](NC(=O)[C@H](Cc1ccccc1)NC(=O)[C@@H](NC(=O)CNC(=O)[C@H](CCC(=O)O)NC(=O)[C@H](C)NC(=O)[C@@H](N)Cc1c[nH]cn1)[C@@H](C)O)[C@@H](C)O)C(C)C)C(=O)NCC(=O)N[C@@H](CCC(N)=O)C(=O)N[C@@H](C)C(=O)N[C@@H](C)C(=O)N[C@@H](CCCCN)C(=O)N[C@@H](CCC(=O)O)C(=O)N[C@@H](Cc1ccccc1)C(=O)N[C@H](C(=O)N[C@@H](C)C(=O)N[C@@H](Cc1c[nH]c2ccccc12)C(=O)N[C@@H](CC(C)C)C(=O)N[C@H](C(=O)N[C@@H](CCCCN)C(=O)NCC(=O)N[C@@H](CCCNC(=N)N)C(=O)NCC(=O)O)C(C)C)[C@@H](C)CC` [compound 13], 18.7 ± 1.36 nM.
Regarding `CCCCCCCCCCCCNC(=O)CC[C@H](NC(=O)[C@H](CC(C)C)NC(=O)[C@H](Cc1ccc(O)cc1)NC(=O)[C@H](CO)NC(=O)[C@H](CO)NC(=O)[C@@H](NC(=O)[C@H](CC(=O)O)NC(=O)[C@H](CO)NC(=O)[C@@H](NC(=O)[C@H](Cc1ccccc1)NC(=O)[C@@H](NC(=O)CNC(=O)[C@H](CCC(=O)O)NC(=O)[C@H](C)NC(=O)[C@@H](N)Cc1c[nH]cn1)[C@@H](C)O)[C@@H](C)O)C(C)C)C(=O)NCC(=O)N[C@@H](CCC(N)=O)C(=O)N[C@@H](C)C(=O)N[C@@H](C)C(=O)N[C@@H](CCCCN)C(=O)N[C@@H](CCC(=O)O)C(=O)N[C@@H](Cc1ccccc1)C(=O)N[C@H](C(=O)N[C@@H](C)C(=O)N[C@@H](Cc1c[nH]c2ccccc12)C(=O)N[C@@H](CC(C)C)C(=O)N[C@H](C(=O)N[C@@H](CCCCN)C(=O)NCC(=O)N[C@@H](CCCNC(=N)N)C(=O)NCC(=O)O)C(C)C)[C@@H](C)CC` [compound 14], binding was put at a Kd of 18.4 ± 2.36 nM.
Take `CCCCCCCCNC(=O)CC[C@H](NC(=O)[C@H](CCCCN)NC(=O)[C@H](C)NC(=O)[C@H](C)NC(=O)[C@H](CCC(N)=O)NC(=O)CNC(=O)[C@H](CCC(=O)O)NC(=O)[C@H](CC(C)C)NC(=O)[C@H](Cc1ccc(O)cc1)NC(=O)[C@H](CO)NC(=O)[C@H](CO)NC(=O)[C@@H](NC(=O)[C@H](CC(=O)O)NC(=O)[C@H](CO)NC(=O)[C@@H](NC(=O)[C@H](Cc1ccccc1)NC(=O)[C@@H](NC(=O)CNC(=O)[C@H](CCC(=O)O)NC(=O)[C@H](C)NC(=O)[C@@H](N)Cc1c[nH]cn1)[C@@H](C)O)[C@@H](C)O)C(C)C)C(=O)N[C@@H](Cc1ccccc1)C(=O)N[C@H](C(=O)N[C@@H](C)C(=O)N[C@@H](Cc1c[nH]c2ccccc12)C(=O)N[C@@H](CC(C)C)C(=O)N[C@H](C(=O)N[C@@H](CCCCN)C(=O)NCC(=O)N[C@@H](CCCNC(=N)N)C(=O)NCC(=O)O)C(C)C)[C@@H](C)CC` [compound 16]: the Kd is 22.3 ± 0.46 nM.
Compound `CCCCCCCCNC(=O)C[C@H](NC(=O)[C@@H](NC(=O)[C@H](CC(C)C)NC(=O)[C@H](Cc1c[nH]c2ccccc12)NC(=O)[C@H](C)NC(=O)[C@@H](NC(=O)[C@H](Cc1ccccc1)NC(=O)[C@H](CCC(=O)O)NC(=O)[C@H](CCCCN)NC(=O)[C@H](C)NC(=O)[C@H](C)NC(=O)[C@H](CCC(N)=O)NC(=O)CNC(=O)[C@H](CCC(=O)O)NC(=O)[C@H](CC(C)C)NC(=O)[C@H](Cc1ccc(O)cc1)NC(=O)[C@H](CO)NC(=O)[C@H](CO)NC(=O)[C@@H](NC(=O)[C@H](CC(=O)O)NC(=O)[C@H](CO)NC(=O)[C@@H](NC(=O)[C@H](Cc1ccccc1)NC(=O)[C@@H](NC(=O)CNC(=O)[C@H](CCC(=O)O)NC(=O)[C@H](C)NC(=O)[C@@H](N)Cc1c[nH]cn1)[C@@H](C)O)[C@@H](C)O)C(C)C)[C@@H](C)CC)C(C)C)C(=O)NCC(=O)N[C@@H](CCCNC(=N)N)C(=O)NCC(=O)O` [compound 19] returned a Kd of 19.6 ± 2.14 nM.
To `CCCCCCCCCCCCNC(=O)C[C@H](NC(=O)[C@@H](NC(=O)[C@H](CC(C)C)NC(=O)[C@H](Cc1c[nH]c2ccccc12)NC(=O)[C@H](C)NC(=O)[C@@H](NC(=O)[C@H](Cc1ccccc1)NC(=O)[C@H](CCC(=O)O)NC(=O)[C@H](CCCCN)NC(=O)[C@H](C)NC(=O)[C@H](C)NC(=O)[C@H](CCC(N)=O)NC(=O)CNC(=O)[C@H](CCC(=O)O)NC(=O)[C@H](CC(C)C)NC(=O)[C@H](Cc1ccc(O)cc1)NC(=O)[C@H](CO)NC(=O)[C@H](CO)NC(=O)[C@@H](NC(=O)[C@H](CC(=O)O)NC(=O)[C@H](CO)NC(=O)[C@@H](NC(=O)[C@H](Cc1ccccc1)NC(=O)[C@@H](NC(=O)CNC(=O)[C@H](CCC(=O)O)NC(=O)[C@H](C)NC(=O)[C@@H](N)Cc1c[nH]cn1)[C@@H](C)O)[C@@H](C)O)C(C)C)[C@@H](C)CC)C(C)C)C(=O)NCC(=O)N[C@@H](CCCNC(=N)N)C(=O)NCC(=O)O` [compound 20] belongs 20.1 ± 1.97 nM.
